Experimental data as given in patent US8541592B2, “Inhibitors of 11-beta-hydroxysteroid dehydrogenase type 1” (Amgen Inc., priority 2005, dated 2013).

Target: T1, 11β-HSD1 (human enzyme) (Homo sapiens, UniProt P28845)
T1 construct: made in house
Test: Enzyme Assay (SPA, 3H-cortisone), human enzyme prep
Format: biochemical
Details: species of enzyme (human or mouse) not stated

T1 sequence (P28845 whole entry): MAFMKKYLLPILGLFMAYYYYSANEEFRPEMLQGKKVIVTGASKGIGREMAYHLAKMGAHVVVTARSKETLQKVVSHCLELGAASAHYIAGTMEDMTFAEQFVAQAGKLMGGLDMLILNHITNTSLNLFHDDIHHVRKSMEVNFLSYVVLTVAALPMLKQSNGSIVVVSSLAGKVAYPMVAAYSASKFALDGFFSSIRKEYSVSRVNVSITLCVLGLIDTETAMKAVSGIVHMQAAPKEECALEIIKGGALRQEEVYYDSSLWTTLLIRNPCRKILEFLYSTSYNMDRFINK

Structure (SMILES)	IC50
CC1(CC2CCOCC2)SC(N[C@H]2C[C@@H]3CC[C@H]2C3)=NC1=O (stereo partly drawn) [2-((1S,2S,4R)-bicyclo[2.2.1]heptan-2-ylamino)-5-methyl-5-((tetrahydro-2H-pyran-4-yl)methyl)thiazol-4(5H)-one]	< 0.02 µM
CC(C)C1(C)SC(Nc2ccccc2Cl)=NC1=O (stereo not shown) [2-((2-chlorophenyl)amino)-5-methyl-5-(1-methylethyl)-1,3-thiazol-4(5H)-one]	< 0.02 µM
Cc1ccccc1NC1=NC(=O)C(C2CCCC2)S1 (stereo not shown) [2-(o-toluidino)-5-cyclopentylthiazol-4(5H)-one]	< 0.02 µM
CC(C)C1(C)SC(Nc2ccccc2C(F)(F)F)=NC1=O (stereo not shown) [5-methyl-5-(1-methylethyl)-2-((2-(trifluoromethyl)phenyl)amino)-1,3-thiazol-4(5H)-one]	< 0.02 µM
